This assay relates to IgE antibodies from patients. The assay is described as follows: Wheat epitope mapping (2): overlapping 10-amino-acid peptide fragments shifted by one amino acid. It counts as binding, human. Particulars: sequence without X; for Epitope sequence binding to IgE antibody, rank of the sequence (Key/Preferably/More preferably/Further preferably): serum of patient P2 (WDEIA). As for the experimental part:
The peptides to be synthesized were shifted by one amino acid.
The library was prepared by the same procedure as described above in (A), and the presence or absence of binding of an IgE antibody present in the serum of a patient to each peptide fragment was measured by the same technique as described above. Numeric values determined from images obtained as a result of carrying out only the procedures (1) and (4) to (6) described above in the subsection titled (3) Spotting of cellulose-bound peptide solution were used as control values. The control value of each peptide was subtracted from numeric values determined from images obtained from results about the serum of patients, and the obtained value of the difference was compared with values of the peptides serving as the basis of overlapping.
Chemiluminescence intensity in images obtained by measurement was converted into a numeric value in the same manner as in (A). Numeric values determined from images obtained as a result of carrying out only the procedures (1) and (4) to (6) described above in the subsection titled (3) Spotting of cellulose-bound peptide solution (secondary antibody measurement values) were used as control values. The control value of each peptide was subtracted from numeric values determined from images obtained from results about the serum of patients. When values obtained using the sequences (SEQ ID NOs: 29, 131, 191, 281, 346, 414, 493, 562, 640, 706, 776, 899, 974, 1010, 1089, 1142, 1166, 1209, 1257, 1297, 1367, 1403, 1508, 1566, 1598, 1608, 1685, 1753, 1789, 1836, 1895, 1977, 2004, 2027, 2068, 2154, 2217, 2265, 2309, 2342, 2419, 2491, 2545, 2613, 2631, 2674, 2701, 2774, 2809 and 2830) serving as the basis of overlapping were defined as 100%, it was determined that: a peptide having a value of the difference that was less than 30% had no binding activity against IgE antibodies; a peptide having a value of the difference that was 30% or more and less than 50% had binding activity, albeit poor, against IgE antibodies; a peptide having a value of the difference that was 50% or more and less than 70% had binding activity, albeit somewhat poor, against IgE antibodies; and a peptide having a value of the difference that was 70% or more had equivalent or good binding activity against IgE antibodies and was thus a peptide had remaining binding activity against IgE antibodies.

Where [1] appears, read: serum of patient G7 (adult, general immediate type allergy to wheat).
[2] abbreviates: serum of patient P51 (child, general immediate type allergy to wheat).

In the case of “1259 (LPRS; REGION 1..4: note = epitope) [compound 1259]”, the “Epitope sequence binding to IgE antibody, rank of the sequence (Key/Preferably/More preferably/Further preferably)” value is reported as “Key”.

Turning to “1269 (LPRS; REGION 1..4: note = epitope) [compound 1269]”, for the setting “serum of patient P20 (WDEIA)”, the “Epitope sequence binding to IgE antibody, rank of the sequence” value is recorded as “Key”.

For the substance “1277 (LPRS; REGION 1..4: note = epitope) [compound 1277]”, the “Epitope sequence binding to IgE antibody, rank of the sequence” value (serum of patient P29 (WDEIA)) is “Key”.

On to “1282 (LPRS; REGION 1..4: note = epitope) [compound 1282]”, for which the “Epitope sequence binding to IgE antibody, rank of the sequence” value (serum of patient P33 (WDEIA)) is recorded as “Key”.

Turning to “1287 (ILPRS; REGION 1..5: note = epitope) [compound 1287]”, where the note is “serum of patient P50 (child, general immediate type allergy to wheat)”, the “Epitope sequence binding to IgE antibody, rank of the sequence” value is “Key”.

“1288 (LPRS; REGION 1..4: note = epitope) [compound 1288]”: the “Epitope sequence binding to IgE antibody, rank of the sequence” value (serum of patient P52 (child, general immediate type allergy to wheat)) was “Key”.

Take “1291 (LPRS; REGION 1..4: note = epitope) [compound 1291]”: the “Epitope sequence binding to IgE antibody, rank of the sequence” value (serum of patient P53 (child, general immediate type allergy to wheat)) is reported as “Key”.

For “1295 (VSMILPRSD; REGION 1..9: note = epitope) [compound 1295]”, the “Epitope sequence binding to IgE antibody, rank of the sequence” value under setting [1] is “Key”.

As for “1296 (ILPRSDCKV; REGION 1..9: note = epitope) [compound 1296]”, the “Epitope sequence binding to IgE antibody, rank of the sequence” value under setting [1] is “Key”.

In the case of “1300 (SINVENVED; REGION 1..9: note = epitope) [compound 1300]”, the “Epitope sequence binding to IgE antibody, rank of the sequence (Key/Preferably/More preferably/Further preferably)” value is on record as “Preferably”.

As for “1301 (SINVEN; REGION 1..6: note = epitope) [compound 1301]”, the “Epitope sequence binding to IgE antibody, rank of the sequence (Key/Preferably/More preferably/Further preferably)” value is “Key”.

For the substance “1303 (INVEN; REGION 1..5: note = epitope) [compound 1303]”, the “Epitope sequence binding to IgE antibody, rank of the sequence” value (serum of patient P3 (WDEIA)) was “Preferably”.

Consider “1304 (NVEN; REGION 1..4: note = epitope) [compound 1304]”, for which the “Epitope sequence binding to IgE antibody, rank of the sequence” value (serum of patient P3 (WDEIA)) was “Key”.

“1305 (NRRALR; REGION 1..6: note = epitope) [compound 1305]”: the “Epitope sequence binding to IgE antibody, rank of the sequence” value (serum of patient P3 (WDEIA)) is given as “Key”.

As for “1307 (NVEN; REGION 1..4: note = epitope) [compound 1307]”, the “Epitope sequence binding to IgE antibody, rank of the sequence” value (serum of patient P8 (WDEIA)) was “Key”.

Consider “1311 (NVEN; REGION 1..4: note = epitope) [compound 1311]”, for which the “Epitope sequence binding to IgE antibody, rank of the sequence” value (serum of patient P10 (WDEIA)) was “Key”.

As for “1313 (NVEN; REGION 1..4: note = epitope) [compound 1313]”, the “Epitope sequence binding to IgE antibody, rank of the sequence” value (serum of patient P12 (WDEIA)) is “Key”.

As for “1316 (VEDNRRALR; REGION 1..9: note = epitope) [compound 1316]”, where the note is “serum of patient P14 (WDEIA)”, the “Epitope sequence binding to IgE antibody, rank of the sequence” value is on record as “Key”.

In the case of “1320 (NVEN; REGION 1..4: note = epitope) [compound 1320]”, under “serum of patient P17 (WDEIA)”, the “Epitope sequence binding to IgE antibody, rank of the sequence” value is listed as “Key”.

“1324 (INVEN; REGION 1..5: note = epitope) [compound 1324]”: the “Epitope sequence binding to IgE antibody, rank of the sequence” value (serum of patient P20 (WDEIA)) was “Preferably”.

On to “1332 (SINVEN; REGION 1..6: note = epitope) [compound 1332]”, for which, under “serum of patient P22 (WDEIA)”, the “Epitope sequence binding to IgE antibody, rank of the sequence” value is “Preferably”.

Turning to “1333 (INVEN; REGION 1..5: note = epitope) [compound 1333]”, the “Epitope sequence binding to IgE antibody, rank of the sequence” value (serum of patient P22 (WDEIA)) is “Key”.

“1336 (NVEN; REGION 1..4: note = epitope) [compound 1336]”: the “Epitope sequence binding to IgE antibody, rank of the sequence” value (serum of patient P26 (WDEIA)) is reported as “Key”.

“1339 (INVEN; REGION 1..5: note = epitope) [compound 1339]”: the “Epitope sequence binding to IgE antibody, rank of the sequence” value (serum of patient P32 (WDEIA)) is “Preferably”.

“1340 (NVEN; REGION 1..4: note = epitope) [compound 1340]”: the “Epitope sequence binding to IgE antibody, rank of the sequence” value (serum of patient P32 (WDEIA)) is reported as “Key”.

Consider “1341 (NRRALR; REGION 1..6: note = epitope) [compound 1341]”, for which the “Epitope sequence binding to IgE antibody, rank of the sequence” value (serum of patient P32 (WDEIA)) is “Key”.

Turning to “1344 (INVEN; REGION 1..5: note = epitope) [compound 1344]”, for the setting “serum of patient P33 (WDEIA)”, the “Epitope sequence binding to IgE antibody, rank of the sequence” value is “Preferably”.

In the case of “1345 (NVEN; REGION 1..4: note = epitope) [compound 1345]”, under “serum of patient P33 (WDEIA)”, the “Epitope sequence binding to IgE antibody, rank of the sequence” value is given as “Key”.

“1346 (NRRALR; REGION 1..6: note = epitope) [compound 1346]”: the “Epitope sequence binding to IgE antibody, rank of the sequence” value (serum of patient P33 (WDEIA)) is “Key”.

Turning to “1351 (INVEN; REGION 1..5: note = epitope) [compound 1351]”, the “Epitope sequence binding to IgE antibody, rank of the sequence” value (serum of patient P34 (WDEIA)) is on record as “Preferably”.

On to “1353 (NVEN; REGION 1..4: note = epitope) [compound 1353]”, for which the “Epitope sequence binding to IgE antibody, rank of the sequence” value (serum of patient P35 (WDEIA)) was “Key”.

On to “1354 (VEDNRRALR; REGION 1..9: note = epitope) [compound 1354]”, for which the “Epitope sequence binding to IgE antibody, rank of the sequence” value (serum of patient P35 (WDEIA)) is “Key”.

For “1356 (INVEN; REGION 1..5: note = epitope) [compound 1356]”, under “serum of patient P36 (WDEIA)”, the “Epitope sequence binding to IgE antibody, rank of the sequence” value is reported as “Preferably”.

For the substance “1357 (NVEN; REGION 1..4: note = epitope) [compound 1357]”, the “Epitope sequence binding to IgE antibody, rank of the sequence” value (serum of patient P36 (WDEIA)) is “Key”.

Turning to “1358 (VEDNRRALR; REGION 1..9: note = epitope) [compound 1358]”, where the note is “serum of patient P36 (WDEIA)”, the “Epitope sequence binding to IgE antibody, rank of the sequence” value is reported as “Preferably”.

As for “1360 (INVEN; REGION 1..5: note = epitope) [compound 1360]”, under setting [2], the “Epitope sequence binding to IgE antibody, rank of the sequence” value was “Preferably”.

Take “1361 (NVEN; REGION 1..4: note = epitope) [compound 1361]”: the “Epitope sequence binding to IgE antibody, rank of the sequence” value under setting [2] was “Key”.

In the case of “1365 (SINVEN; REGION 1..6: note = epitope) [compound 1365]”, the “Epitope sequence binding to IgE antibody, rank of the sequence” value under setting [1] was “Preferably”.

“1366 (INVEN; REGION 1..5: note = epitope) [compound 1366]”: the “Epitope sequence binding to IgE antibody, rank of the sequence” value under setting [1] is reported as “Key”.

Regarding “1368 (KPWQQQ; REGION 1..6: note = epitope) [compound 1368]”, the “Epitope sequence binding to IgE antibody, rank of the sequence (Key/Preferably/More preferably/Further preferably)” value was “Key”.

On to “1369 (QQPLPPQQ; REGION 1..8: note = epitope) [compound 1369]”, for which the “Epitope sequence binding to IgE antibody, rank of the sequence (Key/Preferably/More preferably/Further preferably)” value is “Preferably”.

In the case of “1370 (QPLPPQQ; REGION 1..7: note = epitope) [compound 1370]”, the “Epitope sequence binding to IgE antibody, rank of the sequence (Key/Preferably/More preferably/Further preferably)” value is recorded as “Key”.

As for “1371 (QPLPPQQQP; REGION 1..9: note = epitope) [compound 1371]”, the “Epitope sequence binding to IgE antibody, rank of the sequence” value (serum of patient P4 (WDEIA)) is reported as “Preferably”.

With “1372 (QPLPPQQQ; REGION 1..8: note = epitope) [compound 1372]”, the “Epitope sequence binding to IgE antibody, rank of the sequence” value (serum of patient P4 (WDEIA)) is given as “Key”.

With “1374 (PWQQQPLP; REGION 1..8: note = epitope) [compound 1374]”, the “Epitope sequence binding to IgE antibody, rank of the sequence” value (serum of patient P7 (WDEIA)) was “Preferably”.

In the case of “1375 (PWQQQPL; REGION 1..7: note = epitope) [compound 1375]”, the “Epitope sequence binding to IgE antibody, rank of the sequence” value (serum of patient P7 (WDEIA)) was “Key”.

For “1378 (QQPLPPQQQP; REGION 1..10: note = epitope) [compound 1378]”, the “Epitope sequence binding to IgE antibody, rank of the sequence” value (serum of patient P9 (WDEIA)) was “Preferably”.

Consider “1380 (PWQQQPLPPQ; REGION 1..10: note = epitope) [compound 1380]”, for which the “Epitope sequence binding to IgE antibody, rank of the sequence” value (serum of patient P10 (WDEIA)) was “Key”.

As to “1381 (PWQQQPLPPQ; REGION 1..10: note = epitope) [compound 1381]”, where the note is “serum of patient P12 (WDEIA)”, the “Epitope sequence binding to IgE antibody, rank of the sequence” value is on record as “Preferably”.

Turning to “1382 (PWQQQPLPP; REGION 1..9: note = epitope) [compound 1382]”, the “Epitope sequence binding to IgE antibody, rank of the sequence” value (serum of patient P12 (WDEIA)) is “Key”.

Values taken from patent publication US20240393292A1, “ALLERGY ANTIGEN AND EPITOPE THEREOF” (HOYU CO., LTD., priority 2019, published 2024).
